Tests used:
c-Met [1] = molecular target: T1, c-Met (Homo sapiens, UniProt P08581); assay: cell-free Z-LYTE Tyr6 peptide kinase assay, dose-response; type: biochemical
c-Met [2] = molecular target: T1, c-Met; assay: cell-free Z-LYTE Tyr6 peptide kinase assay, positive control measured by the authors; type: biochemical

T1 sequence (P08581 25-307): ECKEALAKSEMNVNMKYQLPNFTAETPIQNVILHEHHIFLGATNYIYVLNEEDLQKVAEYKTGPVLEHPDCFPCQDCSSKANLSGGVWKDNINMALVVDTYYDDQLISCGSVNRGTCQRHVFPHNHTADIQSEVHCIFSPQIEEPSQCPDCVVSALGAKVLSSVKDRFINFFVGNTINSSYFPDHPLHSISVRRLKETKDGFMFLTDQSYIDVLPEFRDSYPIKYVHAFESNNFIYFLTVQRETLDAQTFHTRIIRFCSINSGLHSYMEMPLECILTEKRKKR
T1 sequence (P08581 308-1390): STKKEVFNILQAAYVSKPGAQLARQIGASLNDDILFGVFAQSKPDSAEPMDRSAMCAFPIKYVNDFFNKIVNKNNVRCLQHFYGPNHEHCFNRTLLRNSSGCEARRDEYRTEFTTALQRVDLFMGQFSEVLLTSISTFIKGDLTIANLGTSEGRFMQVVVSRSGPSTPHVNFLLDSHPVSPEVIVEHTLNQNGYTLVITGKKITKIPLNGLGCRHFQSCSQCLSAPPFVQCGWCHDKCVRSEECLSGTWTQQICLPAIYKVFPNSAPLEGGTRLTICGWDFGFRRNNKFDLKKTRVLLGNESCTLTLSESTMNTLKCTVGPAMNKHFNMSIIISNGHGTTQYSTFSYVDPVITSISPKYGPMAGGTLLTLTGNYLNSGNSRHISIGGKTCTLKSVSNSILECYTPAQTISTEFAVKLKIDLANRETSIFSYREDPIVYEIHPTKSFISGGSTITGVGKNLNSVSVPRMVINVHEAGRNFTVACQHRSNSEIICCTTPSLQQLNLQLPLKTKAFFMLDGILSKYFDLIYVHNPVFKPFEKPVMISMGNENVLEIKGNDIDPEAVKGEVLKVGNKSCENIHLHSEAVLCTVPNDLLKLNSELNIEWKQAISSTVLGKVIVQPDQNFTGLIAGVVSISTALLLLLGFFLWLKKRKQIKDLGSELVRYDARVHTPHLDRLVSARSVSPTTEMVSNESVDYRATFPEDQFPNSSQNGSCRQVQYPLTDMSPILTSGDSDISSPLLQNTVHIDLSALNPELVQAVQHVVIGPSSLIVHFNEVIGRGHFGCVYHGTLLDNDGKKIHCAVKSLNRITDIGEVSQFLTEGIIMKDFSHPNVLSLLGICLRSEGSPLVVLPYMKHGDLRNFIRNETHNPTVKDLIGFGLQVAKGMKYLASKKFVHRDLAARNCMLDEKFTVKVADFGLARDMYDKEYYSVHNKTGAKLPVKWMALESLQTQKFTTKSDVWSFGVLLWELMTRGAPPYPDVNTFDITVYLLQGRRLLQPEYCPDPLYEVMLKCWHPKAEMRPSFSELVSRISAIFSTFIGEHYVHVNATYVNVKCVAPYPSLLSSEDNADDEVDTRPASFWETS

| SMILES | IC50 (c-Met [1]) | IC50 (c-Met [2]) |
| --- | --- | --- |
| O[C@]12CCCCCC[C@@H]3CCN4CCC[C@](O)(CCCCCC[C@@H]5CCN(CCC1)[C@H]2O5)[C@@H]4O3 [ARG C, Araguspongine C] | 19.9 µM | – |
| C/C=C(/C=O)[C@@H](CC=O)CC(=O)OCCc1ccc(O)cc1 [OC, (−)-Oleocanthal] | – | 5 µM |
